{
  "source": "ChEMBL document CHEMBL2086295",
  "about": "“The design, synthesis, in silico ADME profiling, antiplasmodial and antimycobacterial evaluation of new arylamino quinoline derivatives” (Eur J Med Chem, 2012)",
  "key": {"Plasmodium falciparum [1]": {"system": "Plasmodium falciparum", "assay": "Antiplasmodial against chloroquine-sensitive Plasmodium falciparum 3D7 assessed as inhibition of [3H]hypoxanthine incorporation after 24 hrs by scintillation counting", "format": "functional, organism-based"}, "Plasmodium falciparum [2]": {"system": "Plasmodium falciparum", "assay": "Antiplasmodial against chloroquine-rsistant Plasmodium falciparum K1 assessed as inhibition of [3H]hypoxanthine incorporation after 24 hrs by scintillation counting", "format": "functional, organism-based"}, "Plasmodium falciparum [3]": {"system": "Plasmodium falciparum", "assay": "Antiplasmodial against chloroquine-rsistant Plasmodium falciparum W2 after 2 days by flow cytometry", "format": "functional, organism-based", "details": "W2, 48 h"}, "[4]": {"system": "Mycobacterium tuberculosis", "assay": "Antimycobacterial activity against Mycobacterium tuberculosis H37Rv ATCC 27294 after 7 days by microplate alamar blue assay", "format": "functional", "details": "for MIC90: Mycobacterium tuberculosis, H37Rv ATCC 27294, 168 h"}, "[5]": {"system": "Mycobacterium tuberculosis", "assay": "Antimycobacterial activity against Mycobacterium tuberculosis H37Rv ATCC 27294 after 10 days by low oxygen recovery assay", "format": "functional", "details": "for MIC90: Mycobacterium tuberculosis, H37Rv ATCC 27294, 240 h"}, "[6]": {"assay": "Kinetic solubility of the compound at pH 7.4", "format": "physicochemical", "details": "buffer, read-out: Kinetic_solubility"}},
  "data": [
    {"compound": "COc1ccc2nccc(C(c3nnnn3C(C)(C)C)N(C)C)c2c1", "note": "(stereo not given)", "values": [
      {"measurement": "IC50", "setting": "Plasmodium falciparum [1]", "value": 1310, "unit": "nM"},
      {"measurement": "IC50", "setting": "Plasmodium falciparum [2]", "value": 1310, "unit": "nM"},
      {"measurement": "IC50", "setting": "Plasmodium falciparum [3]", "value": "> 10000", "unit": "nM"},
      {"measurement": "inhibition (INH)", "setting": "[4]", "value": 16, "unit": "%"},
      {"measurement": "MIC90", "setting": "[4]", "value": "> 128", "unit": "µM"},
      {"measurement": "inhibition (INH)", "setting": "[5]", "value": 42, "unit": "%"},
      {"measurement": "MIC90", "setting": "[5]", "value": "> 128", "unit": "µM"},
      {"measurement": "solubility kinetic", "setting": "[6]", "value": 189, "unit": "µM"}
    ]},
    {"compound": "CCN(CC)C(c1ccnc2ccc(OC)cc12)c1nnnn1C(C)(C)C", "note": "(stereo not given)", "values": [
      {"measurement": "IC50", "setting": "Plasmodium falciparum [1]", "value": 2390, "unit": "nM"},
      {"measurement": "IC50", "setting": "Plasmodium falciparum [2]", "value": 2390, "unit": "nM"},
      {"measurement": "IC50", "setting": "Plasmodium falciparum [3]", "value": "> 10000", "unit": "nM"},
      {"measurement": "inhibition (INH)", "setting": "[4]", "value": 83, "unit": "%"},
      {"measurement": "MIC90", "setting": "[4]", "value": "> 128", "unit": "µM"},
      {"measurement": "inhibition (INH)", "setting": "[5]", "value": 94, "unit": "%"},
      {"measurement": "MIC90", "setting": "[5]", "value": 123, "unit": "µM"},
      {"measurement": "solubility kinetic", "setting": "[6]", "value": 137, "unit": "µM"}
    ]},
    {"compound": "COc1ccc2nccc(C(c3nnnn3C(C)(C)C)N3CCCC3)c2c1", "note": "(stereo not given)", "values": [
      {"measurement": "IC50", "setting": "Plasmodium falciparum [1]", "value": 13800, "unit": "nM"},
      {"measurement": "IC50", "setting": "Plasmodium falciparum [2]", "value": 13800, "unit": "nM"},
      {"measurement": "IC50", "setting": "Plasmodium falciparum [3]", "value": "> 10000", "unit": "nM"},
      {"measurement": "inhibition (INH)", "setting": "[4]", "value": 24, "unit": "%"},
      {"measurement": "MIC90", "setting": "[4]", "value": "> 128", "unit": "µM"},
      {"measurement": "inhibition (INH)", "setting": "[5]", "value": 30, "unit": "%"},
      {"measurement": "MIC90", "setting": "[5]", "value": "> 128", "unit": "µM"}
    ]},
    {"compound": "COc1ccc2nccc(C(c3nnnn3C(C)(C)C)N3CCCCC3)c2c1", "note": "(stereo not given)", "values": [
      {"measurement": "IC50", "setting": "Plasmodium falciparum [1]", "value": 647, "unit": "nM"},
      {"measurement": "IC50", "setting": "Plasmodium falciparum [2]", "value": 2630, "unit": "nM"},
      {"measurement": "IC50", "setting": "Plasmodium falciparum [3]", "value": "> 10000", "unit": "nM"},
      {"measurement": "inhibition (INH)", "setting": "[4]", "value": 98, "unit": "%"},
      {"measurement": "MIC90", "setting": "[4]", "value": 92.5, "unit": "µM"},
      {"measurement": "inhibition (INH)", "setting": "[5]", "value": 64, "unit": "%"},
      {"measurement": "MIC90", "setting": "[5]", "value": "> 128", "unit": "µM"},
      {"measurement": "solubility kinetic", "setting": "[6]", "value": 114, "unit": "µM"}
    ]},
    {"compound": "COc1ccc2nccc(C(c3nnnn3C(C)(C)C)N3CCN(C)CC3)c2c1", "note": "(stereo not given)", "values": [
      {"measurement": "IC50", "setting": "Plasmodium falciparum [1]", "value": 16800, "unit": "nM"},
      {"measurement": "IC50", "setting": "Plasmodium falciparum [2]", "value": 7950, "unit": "nM"},
      {"measurement": "IC50", "setting": "Plasmodium falciparum [3]", "value": 8390, "unit": "nM"},
      {"measurement": "inhibition (INH)", "setting": "[4]", "value": 0, "unit": "%"},
      {"measurement": "MIC90", "setting": "[4]", "value": "> 128", "unit": "µM"},
      {"measurement": "inhibition (INH)", "setting": "[5]", "value": 0, "unit": "%"},
      {"measurement": "MIC90", "setting": "[5]", "value": "> 128", "unit": "µM"}
    ]},
    {"compound": "COc1ccc2nccc(C(c3nnnn3C(C)(C)C)N3CCOCC3)c2c1", "note": "(stereo not given)", "values": [
      {"measurement": "IC50", "setting": "Plasmodium falciparum [1]", "value": 980, "unit": "nM"},
      {"measurement": "IC50", "setting": "Plasmodium falciparum [2]", "value": 1230, "unit": "nM"},
      {"measurement": "IC50", "setting": "Plasmodium falciparum [3]", "value": "> 10000", "unit": "nM"},
      {"measurement": "inhibition (INH)", "setting": "[4]", "value": 0, "unit": "%"},
      {"measurement": "MIC90", "setting": "[4]", "value": "> 128", "unit": "µM"},
      {"measurement": "inhibition (INH)", "setting": "[5]", "value": 32, "unit": "%"},
      {"measurement": "MIC90", "setting": "[5]", "value": "> 128", "unit": "µM"},
      {"measurement": "solubility kinetic", "setting": "[6]", "value": 179, "unit": "µM"}
    ]},
    {"compound": "COc1ccc2nccc(C(c3nnn[nH]3)N3CCOCC3)c2c1", "note": "(stereo not given)", "values": [
      {"measurement": "IC50", "setting": "Plasmodium falciparum [1]", "value": 8620, "unit": "nM"},
      {"measurement": "IC50", "setting": "Plasmodium falciparum [2]", "value": 6740, "unit": "nM"},
      {"measurement": "IC50", "setting": "Plasmodium falciparum [3]", "value": "> 10000", "unit": "nM"},
      {"measurement": "inhibition (INH)", "setting": "[4]", "value": 0, "unit": "%"},
      {"measurement": "MIC90", "setting": "[4]", "value": "> 128", "unit": "µM"},
      {"measurement": "inhibition (INH)", "setting": "[5]", "value": 1, "unit": "%"},
      {"measurement": "MIC90", "setting": "[5]", "value": "> 128", "unit": "µM"},
      {"measurement": "solubility kinetic", "setting": "[6]", "value": 202, "unit": "µM"}
    ]},
    {"compound": "CN(C)C(c1cc(C(F)(F)F)nc2c(C(F)(F)F)cccc12)c1nnnn1C(C)(C)C", "note": "(stereo not given)", "values": [
      {"measurement": "IC50", "setting": "Plasmodium falciparum [2]", "value": 4520, "unit": "nM"},
      {"measurement": "MIC90", "setting": "[4]", "value": "> 160", "unit": "µM"}
    ]},
    {"compound": "CCN(CC)C(c1cc(C(F)(F)F)nc2c(C(F)(F)F)cccc12)c1nnnn1C(C)(C)C", "note": "(stereo not given)", "values": [
      {"measurement": "IC50", "setting": "Plasmodium falciparum [2]", "value": 2320, "unit": "nM"},
      {"measurement": "MIC90", "setting": "[4]", "value": "> 160", "unit": "µM"}
    ]},
    {"compound": "O[C@@H](c1cc(C(F)(F)F)nc2c(C(F)(F)F)cccc12)[C@H]1CCCCN1", "note": "(relative stereo) [(S,R)-MEFLOQUINE]", "values": [
      {"measurement": "MIC90", "setting": "[4]", "value": 10, "unit": "µM"}
    ]},
    {"compound": "NNC(=O)c1ccncc1", "note": "[ISONIAZID]", "values": [
      {"measurement": "inhibition (INH)", "setting": "[4]", "value": 92, "unit": "%"},
      {"measurement": "MIC90", "setting": "[4]", "value": 0.23, "unit": "µM"},
      {"measurement": "inhibition (INH)", "setting": "[5]", "value": 64, "unit": "%"},
      {"measurement": "MIC90", "setting": "[5]", "value": "> 128", "unit": "µM"}
    ]},
    {"compound": "NC[C@H]1O[C@H](O[C@H]2[C@H](O)[C@@H](O[C@H]3O[C@H](CO)[C@@H](O)[C@H](N)[C@H]3O)[C@H](N)C[C@@H]2N)[C@H](O)[C@@H](O)[C@@H]1O", "note": "[KANAMYCIN]", "values": [
      {"measurement": "MIC90", "setting": "[4]", "value": 3.12, "unit": "µM"}
    ]},
    {"compound": "O=[N+]([O-])c1cn2c(n1)OC[C@@H](OCc1ccc(OC(F)(F)F)cc1)C2", "note": "[PRETOMANID]", "values": [
      {"measurement": "inhibition (INH)", "setting": "[4]", "value": 99, "unit": "%"},
      {"measurement": "MIC90", "setting": "[4]", "value": 0.12, "unit": "µM"},
      {"measurement": "inhibition (INH)", "setting": "[5]", "value": 100, "unit": "%"},
      {"measurement": "MIC90", "setting": "[5]", "value": 3.78, "unit": "µM"}
    ]},
    {"compound": "C=C[C@H]1CN2CC[C@H]1C[C@H]2[C@H](O)c1ccnc2ccc(OC)cc12", "note": "[QUININE]", "values": [
      {"measurement": "IC50", "setting": "Plasmodium falciparum [1]", "value": 0.7, "unit": "nM"},
      {"measurement": "IC50", "setting": "Plasmodium falciparum [2]", "value": 20.4, "unit": "nM"},
      {"measurement": "IC50", "setting": "Plasmodium falciparum [3]", "value": 18.7, "unit": "nM"},
      {"measurement": "inhibition (INH)", "setting": "[4]", "value": 95, "unit": "%"},
      {"measurement": "MIC90", "setting": "[4]", "value": 120, "unit": "µM"},
      {"measurement": "inhibition (INH)", "setting": "[5]", "value": 98, "unit": "%"},
      {"measurement": "MIC90", "setting": "[5]", "value": 122, "unit": "µM"}
    ]},
    {"compound": "CO[C@H]1/C=C/O[C@@]2(C)Oc3c(C)c(O)c4c(O)c(c(/C=N/N5CCN(C)CC5)c(O)c4c3C2=O)NC(=O)/C(C)=C\\C=C\\[C@H](C)[C@H](O)[C@@H](C)[C@@H](O)[C@@H](C)[C@H](OC(C)=O)[C@@H]1C", "note": "[RIFAMPIN]", "values": [
      {"measurement": "inhibition (INH)", "setting": "[4]", "value": 100, "unit": "%"},
      {"measurement": "MIC90", "setting": "[4]", "value": 0.05, "unit": "µM"},
      {"measurement": "inhibition (INH)", "setting": "[5]", "value": 98, "unit": "%"},
      {"measurement": "MIC90", "setting": "[5]", "value": 1.93, "unit": "µM"}
    ]},
    {"compound": "CN[C@@H]1[C@H](O[C@H]2[C@H](O[C@H]3[C@H](O)[C@@H](O)[C@H](N=C(N)N)[C@@H](O)[C@@H]3N=C(N)N)O[C@@H](C)[C@]2(O)C=O)O[C@@H](CO)[C@H](O)[C@H]1O", "note": "[STREPTOMYCIN]", "values": [
      {"measurement": "MIC90", "setting": "[4]", "value": 0.4, "unit": "µM"}
    ]}
  ]
}
